Experimental data: patent US8119633B2, “Substituted sulfonamide compounds” (Gruenenthal GmbH, priority 2007, dated 2012)
Where two headings read alike, the source gives them in different places.

Legend:
[1] = target: T1, human bradykinin receptor 1 (B1R) (Homo sapiens, UniProt P46663); experiment: Functional study on the bradykinin receptor 1 (B1R), human: FLIPR Ca2+ influx assay; format: cell-based
T1 construct: expressed in transfected cells; host or cells: CHO K1 cells
T1 sequence (P46663 1-353): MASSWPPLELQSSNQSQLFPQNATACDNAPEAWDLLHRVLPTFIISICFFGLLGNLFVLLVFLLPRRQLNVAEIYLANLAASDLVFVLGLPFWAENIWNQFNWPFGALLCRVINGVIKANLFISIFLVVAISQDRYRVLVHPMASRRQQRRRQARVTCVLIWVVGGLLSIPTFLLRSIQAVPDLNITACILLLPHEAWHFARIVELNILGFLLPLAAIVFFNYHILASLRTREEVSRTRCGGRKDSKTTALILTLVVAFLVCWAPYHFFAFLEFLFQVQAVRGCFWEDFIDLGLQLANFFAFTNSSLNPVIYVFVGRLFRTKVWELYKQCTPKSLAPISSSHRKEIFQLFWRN
Text: Functional Study on the Human Bradykinin Receptor 1 (B1R)
(§1) The agonistic or antagonistic action of substances can be determined on the bradykinin receptor 1 (B1R) of the species human and rat using the following assay. According to this assay, the Ca^2+ influx through the channel is quantified with the aid of a Ca^2+-sensitive dye (Fluo-4 type, Molecular Probes Europe BV, Leiden, Netherlands) using a Fluorescent Imaging Plate Reader (FLIPR, Molecular Devices, Sunnyvale, USA).
(§2) Chinese hamster ovary cells (CHO K1 cells) which have been stably transfected with the human B1R gene (hB1R cells) or with the B1R gene of the rat (rB1R cells) are used. For functional studies, the cells are plated out on black 96-well plates having a clear base (BD Biosciences, Heidelberg, Germany or Greiner, Frickenhausen, Germany) in a density of 20,000-35,000 cells/well. The cells are incubated overnight at 37° C. and with 5% CO2 in culture medium (hB1R cells: Nutrient Mixture Ham's F12, Gibco Invitrogen GmbH, Karlsruhe, Germany or DMEM, Sigma-Aldrich, Taufkirchen, Germany; rB1R cells: D-MEM/F12, Gibco Invitrogen GmbH, Karlsruhe, Germany), with 10 vol. % FBS (fetal bovine serum, Gibco Invitrogen GmbH, Karlsruhe, Germany or PAN Biotech GmbH, Aidenbach, Germany).
(§3) On the following day, the cells are loaded for 60 minutes at 37° C. with 2.13 μM Fluo-4 (Molecular Probes Europe BV, Leiden, Netherlands) in HBSS buffer (Hank's buffered saline solution, Gibco Invitrogen GmbH, Karlsruhe, Germany) with 2.5 mM probenecid (Sigma-Aldrich, Taufkirchen, Germany) and 10 mM HEPES (Sigma-Aldrich, Taufkirchen, Germany). The plates are then washed twice with HBSS buffer, and HBSS buffer additionally containing 0.1% BSA (bovine serum albumin; Sigma-Aldrich, Taufkirchen, Germany), 5.6 mM glucose and 0.05% gelatin (Merck KGaA, Darmstadt, Germany) is added to the plates. After incubation for a further 20 minutes at room temperature, the plates are inserted into the FLIPR for Ca^2+ measurement. Alternatively, washing is carried out with buffer A (15 mM HEPES, 80 mM NaCl, 5 mM KCl, 1.2 mM CaCl2, 0.7 mM MgSO4, 2 g/l glucose, 2.5 mM probenecid) followed by loading with buffer A with added 2.5 μM Fluo-4 and 0.025% Pluronic F127 (Sigma-Aldrich, Taufkirchen, Germany). The cells are then washed twice with buffer A and incubated for 30 minutes at room temperature with buffer A additionally containing 0.05% BSA and 0.05% gelatin and are then inserted into the FLIPR for Ca^2+ measurement.
(§4) The Ca^2+-dependent fluorescence is measured before and after the addition of substances (λex=488 nm, λem=540 nm). Quantification is carried out by measuring the highest fluorescence intensity (FC, fluorescence counts) over time.
(§5) The FLIPR protocol consists of two substance additions. Test substances (10 μM) are first pipetted onto the cells and the Ca^2+ influx is compared with the control (hB1R: Lys-Des-Arg^9-bradykinin>=0.5 nM; rB1R: Des-Arg^9-bradykinin 10 μM). This gives the activation in %, based on the Ca^2+ signal after addition of Lys-Des-Arg^9-bradykinin (>=0.5 nM) or Des-Arg^9-bradykinin (10 μM).
(§6) After 10-20 minutes' incubation, Lys-Des-Arg^9-bradykinin (hB1R) or Des-Arg^9-bradykinin (rB1R) is applied in the concentration of the EC80, and the influx of Ca^2+ is likewise determined.
(§7) Antagonists lead to suppression of the Ca^2+ influx. The % inhibition compared with the maximum achievable inhibition is calculated.
(§8) In order to determine the IC50 value, the substances are added in various concentrations. Duplicate or triplicate determinations (n=2 or n=3) are carried out, and these are repeated in at least one further independent experiment (N>=2).

[2] = target: T2, bradykinin receptor 1 (B1R) of the rat (Rattus norvegicus, UniProt P97583); experiment: Functional study on the bradykinin receptor 1 (B1R), rat: FLIPR Ca2+ influx assay; format: cell-based
T2 construct: expressed in transfected cells; host or cells: CHO K1 cells
T2 sequence (P97583 1-337): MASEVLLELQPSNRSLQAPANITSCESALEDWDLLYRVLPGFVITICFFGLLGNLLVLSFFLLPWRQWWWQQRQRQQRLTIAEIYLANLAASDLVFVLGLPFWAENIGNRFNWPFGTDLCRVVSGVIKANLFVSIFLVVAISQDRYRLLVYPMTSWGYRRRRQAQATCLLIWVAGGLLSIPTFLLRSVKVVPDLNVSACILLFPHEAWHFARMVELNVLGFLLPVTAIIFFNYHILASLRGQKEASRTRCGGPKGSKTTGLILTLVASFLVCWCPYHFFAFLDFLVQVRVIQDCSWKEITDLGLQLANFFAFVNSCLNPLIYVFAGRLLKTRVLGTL
Text: as §1, §2, §3, §4, §5, §6, §7, §8

[3] = test substance 10 μM, CHO K1 cells transfected with human B1R, Lys-Des-Arg9-bradykinin at EC80, Ca2+ influx (Fluo-4, FLIPR), read-out: B1R antagonism, human [10 μM] % inhibition
[4] = test substance 10 μM, CHO K1 cells transfected with rat B1R, Des-Arg9-bradykinin at EC80, Ca2+ influx (Fluo-4, FLIPR), read-out: B1R antagonism, rat [10 μM] % inhibition

Row | Structure (SMILES) | inhibition at 10 µM [1, 3] | inhibition at 10 µM [2, 4] | inhibition at 10 µM ([1]; CHO-K1, read-out: B1R antagonism, human [10 μM] % inhibition) | inhibition at 10 µM ([2]; CHO-K1, read-out: B1R antagonism, rat [10 μM] % inhibition)
1 | CN(C)C(CCc1ccccc1)C1CCC(CCNC(=O)Cc2ccccc2N(C)S(=O)(=O)c2ccc(Cl)c(Cl)c2)CC1 (stereo not drawn) [Example 99, 2-(2-(3,4-dichloro-N-methylphenylsulfonamido)phenyl)-N-(2-(4-(1-(dimethylamino)-3-phenylpropyl)cyclohexyl)ethyl)acetamide] | 83.3% | -7% | – | –
2 | CN(C)C(c1cccc(F)c1)C1CCC(NC(=O)CC2c3ccccc3CCN2S(=O)(=O)c2ccc(Cl)c(Cl)c2)CC1 (stereo not drawn) [Example 26, 2-(2-(3,4-dichlorophenylsulfonyl)-1,2,3,4-tetrahydroisoquinolin-1-yl)-N-(4-((dimethylamino)(3-fluorophenyl)methyl)cyclohexyl)acetamide] | 97.4% | 73% | – | –
3 | CN(C)C(c1cccc(F)c1)C1CCC(CNC(=O)CC2c3ccccc3CCN2S(=O)(=O)c2ccc(Cl)c(Cl)c2)CC1 (stereo not drawn) [Example 28, 2-[2-(3,4-dichloro-benzenesulfonyl)-1,2,3,4-tetrahydro-isoquinolin-1-yl]-N-{4-[dimethylamino-(3-fluoro-phenyl)-methyl]-cyclohexylmethyl}-acetamide] | 26.3% | 34% | – | –
4 | CN(C)C(c1ccccc1)C1CCC(NC(=O)C2Cc3ccccc3N2S(=O)(=O)c2ccc(Cl)c(Cl)c2)CC1 (stereo not drawn) [Example 91, 1-(3,4-dichlorophenylsulfonyl)-N-(4-((dimethylamino)(phenyl)methyl)cyclohexyl)indoline-2-carboxamide] | – | – | 17.8% | 8%
5 | CN(C)C(c1ccc(F)cc1)C1CCC(CCNC(=O)CC2c3ccccc3CCN2S(=O)(=O)c2ccc(Cl)c(Cl)c2)CC1 (stereo not drawn) [Example 35, 2-[2-(3,4-dichloro-benzenesulfonyl)-1,2,3,4-tetrahydro-isoquinolin-1-yl]-N-(2-{4-[dimethylamino-(4-fluoro-phenyl)-methyl]-cyclohexyl}-ethyl)-acetamide] | 79.5% | 49% | – | –
6 | COc1ccc(S(=O)(=O)N2CCc3ccccc3C2CC(=O)NC2CCC(C(c3ccccc3)N(C)C)CC2)cc1 (stereo not drawn) [Example 9, N-[4-(dimethylamino-phenyl-methyl)-cyclohexyl]-2-[2-(4-methoxy-benzenesulfonyl)-1,2,3,4-tetrahydro-isoquinolin-1-yl]-acetamide] | 105% | 0% | – | –
7 | CN(C)C(c1ccc(F)cc1)C1CCC(NC(=O)c2ccccc2N(C)S(=O)(=O)c2ccc(Cl)c(Cl)c2)CC1 (stereo not drawn) [Example 37, 2-[(3,4-dichloro-benzenesulfonyl)-methyl-amino]-N-{4-[dimethylamino-(4-fluoro-phenyl)-methyl]-cyclohexyl}-benzamide] | 82.2% | 64% | – | –
8 | COc1ccc(S(=O)(=O)N2CCc3ccccc3C2CC(=O)NCC2CCC(C(c3cccs3)N(C)C)CC2)cc1 (stereo not drawn) [Example 21, N-[4-(dimethylamino-thiophen-2-yl-methyl)-cyclohexylmethyl]-2-[2-(4-methoxybenzenesulfonyl)-1,2,3,4-tetrahydro-isoquinolin-1-yl]-acetamide] | 52.9% | 41% | – | –
9 | CN(C)C(c1ccc(F)cc1)C1CCC(CNC(=O)CC2c3ccccc3CCN2S(=O)(=O)c2ccc(Cl)c(Cl)c2)CC1 (stereo not drawn) [Example 31, 2-[2-(3,4-dichloro-benzenesulfonyl)-1,2,3,4-tetrahydro-isoquinolin-1-yl]-N-{4-[dimethylamino-(4-fluoro-phenyl)-methyl]-cyclohexylmethyl}-acetamide] | 54% | 48% | – | –
10 | COc1ccc(S(=O)(=O)N2CCc3ccccc3C2CC(=O)NCC2CCC(C(c3ccc(F)cc3)N(C)C)CC2)cc1 (stereo not drawn) [Example 19, N-{4-[dimethylamino-(4-fluoro-phenyl)-methyl]-cyclohexylmethyl}-2-[2-(4-methoxy-benzenesulfonyl)-1,2,3,4-tetrahydro-isoquinolin-1-yl]-acetamide] | 42.7% | 41% | – | –
11 | CN(C)C(c1cccc(F)c1)C1CCC(CCNC(=O)c2ccccc2N(C)S(=O)(=O)c2ccc(Cl)c(Cl)c2)CC1 (stereo not drawn) [Example 44, 2-[(3,4-dichloro-benzenesulfonyl)-methyl-amino]-N-(2-{4-[dimethylamino-(3-fluoro-phenyl)-methyl]-cyclohexyl}-ethyl)-benzamide] | 46.5% | 18% | – | –
12 | COc1ccc(S(=O)(=O)N2CCc3ccccc3C2CC(=O)NCCC2CCC(C(c3ccc(Cl)cc3)N(C)C)CC2)cc1 (stereo not drawn) [Example 22, N-(2-{4-[(4-chloro-phenyl)-dimethylamino-methyl]-cyclohexyl}-ethyl)-2-[2-(4-methoxy-benzenesulfonyl)-1,2,3,4-tetrahydro-isoquinolin-1-yl]-acetamide] | 70.3% | 34% | – | –
13 | CN(C)C(c1ccc(F)cc1)C1CCC(CCNC(=O)c2c(N(C)S(=O)(=O)c3ccc(Cl)c(Cl)c3)sc3c2CCCC3)CC1 (stereo not drawn) [Example 52, 2-(3,4-dichloro-N-methylphenylsulfonamido)-N-(2-(4-((dimethylamino)(4-fluorophenyl)methyl)cyclohexyl)ethyl)-4,5,6,7-tetrahydrobenzo[b]thiophene-3-carboxamide] | – | -22% | – | –
14 | CN(C)C(c1cccs1)C1CCC(CNC(=O)c2c(N(C)S(=O)(=O)c3ccc(Cl)c(Cl)c3)sc3c2CCCC3)CC1 (stereo not drawn) [Example 49, 2-[(3,4-dichloro-benzenesulfonyl)-methyl-amino]-4,5,6,7-tetrahydrobenzo[b]thiophene-3-carboxylic acid [4-(dimethylamino-thiophen-2-yl-methyl)cyclohexylmethyl]-amide] | – | 19% | – | –
15 | CN(C)C(c1ccccc1)C1CCC(CNC(=O)c2c(N(C)S(=O)(=O)c3ccc(Cl)c(Cl)c3)sc3c2CCCC3)CC1 (stereo not drawn) [Example 46, 2-[(3,4-dichloro-benzenesulfonyl)-methyl-amino]-4,5,6,7-tetrahydrobenzo[b]thiophene-3-carboxylic acid [4-(dimethylamino-phenyl-methyl)cyclohexylmethyl]-amide] | – | -9% | – | –
